Square brackets hold non-standard residues; d marks the D form. Peptide text beside a SMILES is read from it. * marks the point of attachment. Hyp = O=C(O)[C@@H]1C[C@@H](O)CN1; Cbz = O=C(OCc1ccccc1)*; Boc = CC(C)(C)OC(=O)*; OBn = c1ccc(CO*)cc1; Bn = c1ccc(C*)cc1; OtBu = CC(C)(C)O*
Columns and labels:
P-gp = molecular target: T1, P-gp (Homo sapiens, UniProt P08183); experiment: Flow cytometry, inhibition of mitoxantrone efflux in NIH3T3 cells expressing P-gp; type: cell-based; conditions: for % pump inhibition at 10 μM of compound, P-gp / inhibition at 1 h, 10 µM: 10 μM compound; for % pump inhibition at 10 μM of compound, P-gp / inhibition at 1 h, 10 µM / IC50: mitoxantrone efflux; for inhibition at 1 h, 10 µM: human, probe mitoxantrone, read-out: % pump inhibition at 10 μM of compound, P-gp; for IC50: mathematical adjustment of experimental points
T1 construct: expressed in transfected cells; host or cells: NIH3T3 (ATCC CRL-1658), stably transfected with retroviral vector pHaMDR1/A
T1 sequence (P08183 whole entry): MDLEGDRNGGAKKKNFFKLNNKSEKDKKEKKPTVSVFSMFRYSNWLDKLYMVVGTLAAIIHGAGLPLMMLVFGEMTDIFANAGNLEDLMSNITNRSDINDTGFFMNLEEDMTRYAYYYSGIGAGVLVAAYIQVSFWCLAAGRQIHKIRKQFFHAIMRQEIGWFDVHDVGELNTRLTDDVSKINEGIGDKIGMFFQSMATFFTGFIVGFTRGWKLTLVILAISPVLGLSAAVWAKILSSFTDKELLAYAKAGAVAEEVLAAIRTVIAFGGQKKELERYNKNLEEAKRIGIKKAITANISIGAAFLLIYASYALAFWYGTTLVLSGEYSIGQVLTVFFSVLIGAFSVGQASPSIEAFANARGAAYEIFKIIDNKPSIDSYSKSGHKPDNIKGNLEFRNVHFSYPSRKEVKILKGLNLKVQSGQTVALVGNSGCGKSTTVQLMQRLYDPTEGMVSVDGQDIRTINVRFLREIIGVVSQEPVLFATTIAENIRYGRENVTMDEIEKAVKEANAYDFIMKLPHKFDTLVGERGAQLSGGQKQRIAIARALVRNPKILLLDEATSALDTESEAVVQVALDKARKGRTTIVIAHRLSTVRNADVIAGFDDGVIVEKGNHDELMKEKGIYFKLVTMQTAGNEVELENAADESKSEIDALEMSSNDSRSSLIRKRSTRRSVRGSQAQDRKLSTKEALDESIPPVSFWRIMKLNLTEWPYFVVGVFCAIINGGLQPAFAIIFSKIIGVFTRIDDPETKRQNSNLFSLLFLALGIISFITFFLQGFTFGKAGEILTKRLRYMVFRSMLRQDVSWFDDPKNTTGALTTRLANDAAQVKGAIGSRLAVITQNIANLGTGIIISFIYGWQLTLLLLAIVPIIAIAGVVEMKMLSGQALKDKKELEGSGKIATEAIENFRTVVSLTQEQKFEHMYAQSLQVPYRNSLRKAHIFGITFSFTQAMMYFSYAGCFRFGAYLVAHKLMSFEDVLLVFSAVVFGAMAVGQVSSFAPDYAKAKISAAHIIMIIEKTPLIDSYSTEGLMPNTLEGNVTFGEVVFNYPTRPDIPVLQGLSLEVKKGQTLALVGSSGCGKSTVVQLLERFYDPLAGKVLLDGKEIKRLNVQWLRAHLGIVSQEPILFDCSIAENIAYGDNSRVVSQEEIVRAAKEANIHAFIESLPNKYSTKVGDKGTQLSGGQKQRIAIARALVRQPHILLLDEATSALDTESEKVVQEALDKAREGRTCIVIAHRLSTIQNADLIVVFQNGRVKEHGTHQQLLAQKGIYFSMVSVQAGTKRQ
Text: (§1) The HEK-293 human fibroblast line (ATCC cell collection CRL-1573) is transfected with either BCRP (Robey R. W. et al. 2003, Br. J. Cancer 89(10) 1971-1978, [32]) or ABCC1, cloned into the pcDNA3.1 expression vector (Invitrogen), or with the empty pcDNA3.1 vector. The NIH3T3 cell line (ATCC CRL-1658) was stably transfected with pHaMDR1/A (Cardarelli et al. 1995 Cancer Res 55 1086-1091, [33]), which is a retroviral vector that expresses the wild-type MDR1 protein. The BHK-21 cell line (ATCC CCL-10) was transfected with MRP1 cloned into the pcDNA3.1 expression vector, or the empty pcDNA3.1 vector. The cells are maintained in culture in DMEM glutamax II (Invitrogen) supplemented with 10% of fetal bovine serum and 1% of penicillin/streptomycin. The data are processed with Sigmaplot V11 (http://www.systat.com/), and the equation for mathematical adjustment of the experimental data for calculating the IC50 values: f=a×(1−exp(−b×x)) (a=slope, b=intercept on the y-axis).
(§2) The cells expressing P-gp, BCRP and MRP, and their corresponding controls, are placed in the presence of 10 and 2 μM of mitoxantrone for the first two transporters and of 1 μM of daunorubicin for the 3rd. Substrate accumulation is carried out for 30 minutes at 37° C. in the presence or absence of varied concentrations of the molecules tested, at a final DMSO (dimethyl sulfoxide) concentration of 0.5%. After washing with PBS (phosphate buffered saline), the cells are incubated in medium containing the same concentrations of molecules tested as previously, for 1 h at 37° C. The intracellular fluorescence of mitoxantrone and daunorubicin anticancer agent is measured with the FACscan flow cytometer (Becton Dickinson, Mountain, View, Calif.). The drugs are excited at 488 nm. The emission of mitoxantrone is measured at 650 nm, whereas the emission of daunorubicin is measured at 530 nm. The effectiveness of the molecules tested is expressed by equation 1: % effectiveness=100×(FA−FBG)/(FC−FBG), where FA corresponds to the intracellular level of substrate measured in the cells overexpressing ABCG2 (corresponding to the lowest level of fluorescence in the absence of inhibitor), FC corresponds to the fluorescence in the control cells transfected with the empty vector (and therefore to the maximum accumulation of substrate in the cells) and FBG corresponds to the fluorescence measured in the absence of substrate and in the presence of inhibitor.
(§3) The inhibitory effect of the compounds is quantified by measuring, by flow cytometry, the efflux of an anticancer drug transported by the pump under consideration, i.e. mitoxantrone for P-gp and BCRP and daunorubicin for MRP1. It is compared with that of the reference product, reversin 121. The products are tested at 10 μM, then at 2 μM for those which block at least 80% of the efflux of mitoxantrone, and for some, a more complete concentration range is tested so as to establish the concentration value producing 50% inhibition, IC50, as indicated in FIG. 3.

BCRP = molecular target: T2, BCRP (Homo sapiens, UniProt Q9UNQ0); experiment: Flow cytometry, inhibition of mitoxantrone efflux in HEK-293 cells transfected with BCRP; type: cell-based; conditions: 10 μM compound
T2 construct: expressed in transfected cells; host or cells: HEK-293 (ATCC CRL-1573), pcDNA3.1 expression vector (Invitrogen)
T2 sequence (Q9UNQ0 1-655): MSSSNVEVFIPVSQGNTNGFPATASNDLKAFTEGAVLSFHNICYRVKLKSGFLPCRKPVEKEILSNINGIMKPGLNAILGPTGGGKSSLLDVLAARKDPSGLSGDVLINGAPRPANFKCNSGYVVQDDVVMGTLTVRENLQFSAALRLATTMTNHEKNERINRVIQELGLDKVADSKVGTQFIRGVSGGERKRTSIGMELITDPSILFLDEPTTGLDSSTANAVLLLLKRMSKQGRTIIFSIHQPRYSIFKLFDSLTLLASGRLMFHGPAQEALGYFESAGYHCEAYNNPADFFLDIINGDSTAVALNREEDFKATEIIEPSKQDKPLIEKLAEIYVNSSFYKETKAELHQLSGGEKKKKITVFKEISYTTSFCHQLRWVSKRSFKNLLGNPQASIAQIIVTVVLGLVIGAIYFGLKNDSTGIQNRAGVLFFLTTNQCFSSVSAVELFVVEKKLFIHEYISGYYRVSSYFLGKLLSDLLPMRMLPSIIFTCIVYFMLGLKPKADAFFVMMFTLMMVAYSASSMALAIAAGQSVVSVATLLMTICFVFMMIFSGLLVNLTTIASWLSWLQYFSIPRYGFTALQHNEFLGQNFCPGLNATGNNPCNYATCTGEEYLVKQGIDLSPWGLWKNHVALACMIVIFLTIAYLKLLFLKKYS
Text: as §1, §2, §3

ABCB1 = ABCB1 (Homo sapiens, UniProt P08183); parameters: key: the inhibitor is active (+); it is inactive (−); the effect is unknown (?); conditions: cited from earlier work
Chain of ABCB1 (P08183 whole entry): as the sequence (P08183 whole entry) above

ABCG2 = molecular target: T3, ABCG2 (Homo sapiens, UniProt Q9UNQ0); parameters: key: the inhibitor is active (+); it is inactive (−); the effect is unknown (?); conditions: cited from earlier work
T3 sequence (Q9UNQ0 1-655): T2 sequence (Q9UNQ0 1-655)

ABCC1 = ABCC1 (Homo sapiens, UniProt P33527); conditions: cited from earlier work
Chain of ABCC1 (P33527 whole entry): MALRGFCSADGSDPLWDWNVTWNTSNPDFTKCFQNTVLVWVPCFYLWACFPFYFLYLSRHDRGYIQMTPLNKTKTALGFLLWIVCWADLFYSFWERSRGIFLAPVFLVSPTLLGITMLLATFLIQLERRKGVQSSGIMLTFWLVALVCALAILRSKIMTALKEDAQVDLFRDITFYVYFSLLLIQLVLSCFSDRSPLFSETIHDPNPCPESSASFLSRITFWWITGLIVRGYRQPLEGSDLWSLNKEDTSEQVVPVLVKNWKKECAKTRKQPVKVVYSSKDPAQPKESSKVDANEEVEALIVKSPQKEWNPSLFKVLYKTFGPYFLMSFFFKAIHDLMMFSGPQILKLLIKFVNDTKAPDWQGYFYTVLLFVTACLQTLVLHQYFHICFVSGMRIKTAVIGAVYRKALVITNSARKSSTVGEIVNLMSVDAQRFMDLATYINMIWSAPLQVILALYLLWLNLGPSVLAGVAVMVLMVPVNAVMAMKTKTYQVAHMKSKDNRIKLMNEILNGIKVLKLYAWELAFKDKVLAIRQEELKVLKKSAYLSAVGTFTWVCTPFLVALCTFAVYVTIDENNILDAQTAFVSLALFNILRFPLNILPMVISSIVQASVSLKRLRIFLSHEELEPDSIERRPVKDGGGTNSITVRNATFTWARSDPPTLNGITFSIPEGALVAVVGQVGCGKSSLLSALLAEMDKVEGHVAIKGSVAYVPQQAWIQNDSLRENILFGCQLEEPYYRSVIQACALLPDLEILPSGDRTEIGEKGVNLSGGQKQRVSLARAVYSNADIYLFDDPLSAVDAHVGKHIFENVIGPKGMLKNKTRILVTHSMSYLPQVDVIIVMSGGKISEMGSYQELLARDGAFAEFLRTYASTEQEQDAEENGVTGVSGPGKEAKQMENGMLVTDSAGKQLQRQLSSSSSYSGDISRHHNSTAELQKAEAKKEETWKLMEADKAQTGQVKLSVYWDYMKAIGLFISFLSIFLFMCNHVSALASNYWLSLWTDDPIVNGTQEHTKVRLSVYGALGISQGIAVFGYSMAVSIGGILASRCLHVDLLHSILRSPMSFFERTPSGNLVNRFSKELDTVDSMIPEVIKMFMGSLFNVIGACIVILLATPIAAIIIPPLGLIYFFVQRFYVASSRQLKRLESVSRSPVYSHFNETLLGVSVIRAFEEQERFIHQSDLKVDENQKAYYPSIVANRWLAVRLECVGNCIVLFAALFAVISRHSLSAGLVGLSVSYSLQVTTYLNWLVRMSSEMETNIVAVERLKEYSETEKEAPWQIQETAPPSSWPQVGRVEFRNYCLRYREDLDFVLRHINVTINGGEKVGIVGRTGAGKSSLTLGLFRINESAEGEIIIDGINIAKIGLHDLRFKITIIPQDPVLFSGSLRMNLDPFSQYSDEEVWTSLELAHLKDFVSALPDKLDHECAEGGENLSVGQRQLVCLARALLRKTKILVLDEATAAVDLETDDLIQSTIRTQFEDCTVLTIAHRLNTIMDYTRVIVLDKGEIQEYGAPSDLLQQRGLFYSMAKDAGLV

[1] = phase III; cited from earlier work
MRP1 = molecular target: T4, MRP1 (Homo sapiens, UniProt P33527); experiment: Flow cytometry, inhibition of daunorubicin efflux in cells transfected with MRP1; type: cell-based; conditions: 10 μM compound
T4 construct: expressed in transfected cells; host or cells: BHK-21 (ATCC CCL-10) with MRP1 in pcDNA3.1; HEK-293 transfected with ABCC1 in pcDNA3.1 is also described
T4 sequence (P33527 whole entry): as above
Text: as §1, §2
The inhibitory effect of the compounds is quantified by measuring, by flow cytometry, the efflux of an anticancer drug transported by the pump under consideration, i.e. mitoxantrone for P-gp and BCRP and daunorubicin for MRP1. It is compared with that of the reference product, reversin 121. […]

[2] = system: NIH3T3 cells expressing or not expressing P-gp; experiment: Cytotoxicity test (MTT), cell survival after 72 h; type: cell-based
Description: The cells are seeded in a proportion of 10 000 per well in 96-well plates and incubated for 24 hours at 37° C. under 5% CO2. Varied concentrations of compounds Nos 2, 3, 4, 5 and 6, up to 20 times the IC50, are then added. The cytotoxicity is evaluated colorinnetrically with 3-(4,5-dimethylthiazol-2-yl)-2,5-diphenyltetrazolium bromide (MTT).
Increasing concentrations of compound No. 4 or No. 6 are applied to NIH3T3 cells expressing or not expressing P-gp. The cell survival is measured after 72 h and is expressed as a percentage. At 10 times the half-maximum-effect concentration, these two compounds are not toxic. Above this, the toxicity of compound No. 4 remains negligible, while that of compound No. 6 remains limited.

Row | Structure (SMILES) | activity of MDR inhibitor on ABCB1 (ABCB1) | activity of MDR inhibitor on ABCG2 (ABCG2) | activity of MDR inhibitor on ABCC1 (ABCC1) | IC50 (P-gp) [nM] | further results
1 | CC(C)(C)OC(=O)[C@H](CCCCNC(=O)OCc1ccccc1)NC(=O)[C@@H]1C[C@@H](OC(=O)Cc2ccccc2)CN1C(=O)OC(C)(C)C (relative stereo) [No. 2, N^α-Boc-trans-L-4-Hyp(COBn)-L-Lys(Z)-OtBu] |  |  |  |  | % pump inhibition at 10 μM of compound, P-gp (P-gp): 68.0 ± 10.0%; % pump inhibition at 10 μM of compound, BCRP (BCRP): 10.0 ± 7.5%
2 | COc1cc2c(cc1OC)CN(CCc1ccc(NC(=O)c3cccc4c(=O)c5cccc(OC)c5[nH]c34)cc1)CC2 [GF120918 (elacridar)] | + | + | − |  | 
3 | O[C@@H](COc1cccc2ncccc12)CN1CCN([C@@H]2c3ccccc3[C@@H]3[C@H](c4ccccc42)C3(F)F)CC1 [Ly335979 (zosuquidar)] |  | − | − |  | clinical outcome [1]: stopped in phase III because of their adverse effects
4 | CC(C)(C)OC(=O)C(CCCCNC(=O)OCc1ccccc1)NC(=O)C1CC(OC(=O)C2CCCCC2)CN1C(=O)OC(C)(C)C [No. 3, N^α-Boc-trans-L-4-Hyp(COcHex)-L-Lys(Z)-OtBu] |  |  |  | 1680 ± 280 | % pump inhibition at 10 μM of compound, MRP1 (MRP1; 10 µM): non measurable; IC50 for P-gp compared with that of reversin 121 (P-gp): better than that of reversin; inhibition at 1 h, 10 µM (P-gp): 106 ± 13.4%; inhibition at 1 h, 10 µM (BCRP; human, HEK-293 cells transfected with BCRP, probe mitoxantrone, read-out: % pump inhibition at 10 μM of compound, BCRP): 11.2%
5 | CC(C)(C)OC(=O)[C@H](CCCCNC(=O)OCc1ccccc1)NC(=O)[C@@H]1C[C@@H](OCc2ccccc2)CN1C(=O)OC(C)(C)C [No. 4, N^α-Boc-trans-L-4-Hyp(Bn)-L-Lys(Z)-OtBu] (Boc-[Hyp](Bn)-Lys(Cbz)-OtBu) |  |  |  | 730 ± 200 | cytotoxicity ([2]; above 10 times the half-maximum-effect concentration): negligible; cytotoxicity ([2]; at 10 times the half-maximum-effect concentration): not toxic; % pump inhibition at 10 μM of compound, MRP1 (MRP1): low or zero; inhibition at 1 h, 10 µM (MRP1; human, probe daunorubicin, read-out: % pump inhibition at 10 μM of compound, MRP1): < 10%; IC50 for P-gp compared with that of reversin 121 (P-gp): twice as good; % pump inhibition at 10 μM of compound, P-gp (P-gp): 99.7 ± 11.0%; % pump inhibition at 10 μM of compound, BCRP (BCRP; 10 µM): 16.6 ± 3.4%
6 | CC(C)(C)OC(=O)[C@H](CCCCNC(=O)OCc1ccccc1)NC(=O)[C@@H]1C[C@@H](OCC2CCCCC2)CN1C(=O)OC(C)(C)C [No. 5, N^α-Boc-trans-L-4-Hyp(CH2cHex)-L-Lys(Z)-OtBu] |  |  |  | 1130 ± 340 | inhibition at 1 h, 10 µM (P-gp): 82.2 ± 10.8%; % pump inhibition at 10 μM of compound, BCRP (BCRP): 18.8 ± 10.0%
7 | CCOC/C=C/c1ccc(-c2nc(-c3ccc(NC(C)C)cc3)c(-c3ccc(NC(C)C)cc3)[nH]2)cc1 [ONT-093 (ontogeny)] | + |  | − |  | 
8 | C/C=C/C[C@@H](C)C(=O)[C@H]1C(=O)N[C@@H](C(C)C)C(=O)N(C)CC(=O)N(C)[C@@H](CC(C)C)C(=O)N[C@@H](C(C)C)C(=O)N(C)[C@@H](CC(C)C)C(=O)N[C@@H](C)C(=O)N[C@H](C)C(=O)N(C)[C@@H](CC(C)C)C(=O)N(C)[C@@H](CC(C)C)C(=O)N(C)[C@@H](C(C)C)C(=O)N1C [PSC833 (valspodar)] | + | − |  |  | 
9 | COC(=O)c1cnc2n1CCc1ccccc1C2=C1CCN(CCc2ccc(OCc3ccc4ccccc4n3)cc2)CC1 [R101933 (laniquidar)] | + |  |  |  | 
10 | CC(C)(C)OC(=O)N[C@@H](CC(=O)OCc1ccccc1)C(=O)N[C@@H](CCCCNC(=O)OCc1ccccc1)C(=O)OC(C)(C)C [Reversin 121, reference compound] (Boc-Asp(OBn)-Lys(Cbz)-OtBu) |  |  |  | 1410 ± 340 | % pump inhibition at 10 μM of compound, P-gp (P-gp): 75.8 ± 1.6%; % pump inhibition at 10 μM of compound, BCRP (BCRP): 37.2 ± 3.7%
11 | COc1cc(C(=O)C(=O)N2CCCC[C@H]2C(=O)OC(CCCc2cccnc2)CCCc2cccnc2)cc(OC)c1OC [VX-710 (biricodar)] | + | + | + |  | 
12 | COc1cc2c(cc1OC)CN(CCc1ccc(NC(=O)c3cc(OC)c(OC)cc3NC(=O)c3cnc4ccccc4c3)cc1)CC2 [XR9576 (tariquidar)] | + | + |  |  | 
